Measurements reported in PMC13415951 (Journal of Experimental Botany, 2026).
Substitutions are numbered along the chain they refer to.

Tests used:
OsUGT79 Q202A = molecular target: T1, OsUGT79 Q202A (Oryza sativa subsp. japonica, UniProt Q7XT97, Q202A); assay: biochemical; format: biochemical
T1 sequence (Q7XT97 1-466 Q202A): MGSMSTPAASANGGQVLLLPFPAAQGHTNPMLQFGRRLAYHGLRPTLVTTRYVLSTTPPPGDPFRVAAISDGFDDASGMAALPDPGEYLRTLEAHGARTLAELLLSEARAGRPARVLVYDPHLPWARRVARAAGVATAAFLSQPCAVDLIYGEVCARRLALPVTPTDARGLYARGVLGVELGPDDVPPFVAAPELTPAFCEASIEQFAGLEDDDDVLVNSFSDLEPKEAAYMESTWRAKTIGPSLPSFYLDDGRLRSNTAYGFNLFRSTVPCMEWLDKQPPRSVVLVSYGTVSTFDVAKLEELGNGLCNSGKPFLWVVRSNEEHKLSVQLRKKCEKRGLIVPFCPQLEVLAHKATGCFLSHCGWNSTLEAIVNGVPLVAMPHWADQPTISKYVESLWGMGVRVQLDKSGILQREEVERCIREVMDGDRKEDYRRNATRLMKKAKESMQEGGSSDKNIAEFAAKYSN

[1] = molecular target: T2, OsUGT79 H122A/L123A/Q202A (Oryza sativa subsp. japonica, UniProt Q7XT97, H122A/L123A/Q202A); assay: biochemical; format: biochemical
T2 sequence (Q7XT97 1-466 H122A/L123A/Q202A): T1 sequence (Q7XT97 1-466 Q202A) with H122A, L123A

OsUGT79 = molecular target: T3, OsUGT79 (Oryza sativa subsp. japonica, UniProt Q7XT97); assay: biochemical; format: biochemical
T3 construct: made in house; host or cells: E. coli
T3 sequence (Q7XT97 1-466): T1 sequence (Q7XT97 1-466 Q202A) with A202Q

[2] = molecular target: T2, OsUGT79 H122A/L123A/Q202A; format: biochemical
piglets = system: piglets; design: method as in Rotter et al., 1992; conditions: ref Rotter et al., 1992; cited from earlier work
[3] = read-out: Glucosylation rate of DON, percentage of the control

Question: Which “K iu of CUL (uncompetitive inhibition, DON as variable substrate)” value (OsUGT79 Q202A) does the source give for `CC1(C)CCC[C@]2(C)[C@@H]3[C@H]1[C@@H](O)[C@@]2(C)C[C@H]3O` [CUL, culmorin] here?
Answer: Its value is 56 µM.

Question: What about the Ki (OsUGT79 Q202A) of the same compound?
Answer: The Ki was 16 µM.

Question: What about the “K iu of CUL (uncompetitive inhibition, DON as variable substrate)” value [1] of the same compound?
Answer: Its value is 217 µM.

Question: What about the Ki [1] of the same compound?
Answer: The Ki was 65 µM.

Question: And the “CUL glucosylation rate compared with DON” value (OsUGT79)?
Answer: Its value is 1–2%.

Question: And the “Specific activity (glucoside formation)” value (OsUGT79)?
Answer: Its value is 1.85 ± 0.05 nmol/min/mg.

Question: And the remaining activity at 25 µM (OsUGT79; [3])?
Answer: The remaining activity at 25 µM was 64 ± 3%.

Question: What about the remaining activity at 125 µM (OsUGT79; [3]) of the same compound?
Answer: The remaining activity at 125 µM was 33 ± 4%.

Question: What about the “Specific activity (glucoside formation)” value [2] of the same compound?
Answer: Its value is 2.89 ± 0.10 nmol/min/mg.

Question: What about the “Effect on growth of piglets” value (piglets) of the same compound?
Answer: Its value is “no negative effects”.
